From US4593090A, “Novel nitrosourea compounds, method for preparing same, and pharmaceutical composition containing same” (Gogo Kimura, priority 1981, dated 1986)
Read-outs that look alike come from different tables or passages of the source.

What was measured:
Leukemia L1210 = experiment: Activity against Leukemia L1210, intraperitoneal, increase in life span of mice; type: in vivo, female mice (BDF1 family); conditions: for ED (maximum ILS) / ED30: Mus musculus, L1210, ip, ip once a day for 5 successive days; for ED (maximum ILS): daily dosage giving maximum increase of life span, read-out: O.D. (optimum dosage); for ED30: daily dosage increasing average survival days by 30%, read-out: ILS30; for Survivors after 60 days / Max. ILS % / Therapeutic ratio TR: ip; for Survivors after 60 days: 6-membered group; for Max. ILS %: 60-day observation, versus control; for Therapeutic ratio TR: O.D./ILS30
Procedure, shortened: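 L1210 cells (1×10^5) into abdominal cavity of female BDF1 mice, 20–23 g, n=6/group. Dosing 24 h post-implant, ip or po, qd ×5. 60-day observation; ILS% = mean survival vs untreated control; T.R. = O.D./ILS 30.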

Ehrlich acites carcinoma = experiment: Growth-inhibiting effect against Ehrlich acites carcinoma; type: in vivo, male mice; conditions: Mus musculus, Ehrlich, 120 h, 5 days; for response vs control in vivo at 25 mg/kg: 25 mg/kg/day ip; for response vs control in vivo at 100 mg/kg: 100 mg/kg/day ip; for response vs control in vivo at 50 mg/kg: 50 mg/kg/day ip; for response vs control in vivo at 200 mg/kg: 200 mg/kg/day ip
Experimental: Ehrlich acites carcinoma (1×10^7 cells) was implantated into the abdominal cavities of a 6-membered group of male mice. Test compounds (solutions or suspensions in 1% Nikohl HCO-60) were each intraperioneally administered once a day 5 successive days to the mice 24 hrs. after the implantation. Total packed cell volumes [TPCV, namely, total packed volumes of Acites carcinoma] were determined 7 days after the implantation to calculate growth ratio of tumor [T/C%; T: packed volume of Acites carcinoma in treated groups, C: packed volume of Acites carcinoma in an untreated group]. Acitivity is represented by - when T/C% is 100-66, by + when T/C% 65-41, by ++ when T/C% 40-11, and by +++ when T/C% 10-0.

[1] = Acute toxicity (LD50, Behrens-Karber method); type: in vivo, ICR mice; conditions: mouse, in vivo, ip, mortality during 30 days
Experimental: Test compounds, dissolved or suspended in 0.5% aqueous CMC, were each intraperitoneally administered to ICR mice in a dose of 0.1 ml per 10 g body weight. LD50 (mg/kg) value of each test compound was calculated from the mortality of mice during 30 days by the Behrens-Karber method.

Row | SMILES | ED (maximum ILS) (Leukemia L1210) | ED30 (Leukemia L1210) | Survivors after 60 days (Leukemia L1210) | Max. ILS % (Leukemia L1210) | Therapeutic ratio TR (Leukemia L1210) | response vs control in vivo at 25 mg/kg (Ehrlich acites carcinoma; read-out: Activity) | response vs control in vivo at 25 mg/kg (Ehrlich acites carcinoma; read-out: T/C %) | response vs control in vivo at 100 mg/kg (Ehrlich acites carcinoma; read-out: Activity) | response vs control in vivo at 100 mg/kg (Ehrlich acites carcinoma; read-out: T/C %) | LD50 at 720 h [1] | response vs control in vivo at 50 mg/kg (Ehrlich acites carcinoma; read-out: Activity) | response vs control in vivo at 50 mg/kg (Ehrlich acites carcinoma; read-out: T/C %) | response vs control in vivo at 200 mg/kg (Ehrlich acites carcinoma; read-out: Activity) | response vs control in vivo at 200 mg/kg (Ehrlich acites carcinoma; read-out: T/C %)
1 | COCCCO[C@H]1O[C@H](CN(CC(C)C)C(=O)N(CCCl)N=O)[C@@H](O)[C@H](O)[C@H]1O [Compound 31] | 170 mg/kg | 2.65 mg/kg | 6/6 | > 700% | 64.2 | 0 to 10% | 0% | 0 to 10% | 0% | 505 mg/kg |  |  |  | 
2 | CCOCCN(C[C@H]1O[C@H](OC2CCCCC2)[C@H](O)[C@@H](O)[C@@H]1O)C(=O)N(CCCl)N=O [Compound 40, 3-(2-ethoxyethyl)-3-(cyclohexyl α-D-glucopyranose-6-yl)-1-(2-chloroethyl)-1-nitrosourea] | 170 mg/kg | 2.66 mg/kg | 6/6 | > 700% | 63.9 | 0 to 10% | 0% | 0 to 10% | 0% | 545 mg/kg |  |  |  | 
3 | COC(C)CN(C[C@H]1O[C@H](OC2CCCCC2)[C@H](O)[C@@H](O)[C@@H]1O)C(=O)N(CCCl)N=O (stereo partly drawn) [Compound 41, 3-(2-methoxy-n-propyl)-3-(cyclohexyl α-D-glucopyranose-6-yl)-1-(2-chloroethyl)-1-nitrosourea] | 180 mg/kg | 2.72 mg/kg | 6/6 | > 700% | 66.2 | 0 to 10% | 0% | 0 to 10% | 0% | 580 mg/kg |  |  |  | 
4 | O=NN(CCCl)C(=O)N(CC1CCCO1)C[C@H]1O[C@H](OC2CCCCC2)[C@H](O)[C@@H](O)[C@@H]1O (stereo partly drawn) [Compound 50, 3-tetrahydrofurfuryl-3-(cyclohexyl α-D-glucopyranose-6-yl)-1-(2-chloroethyl)-1-nitrosourea] | 150 mg/kg | 2.31 mg/kg | 6/6 | > 700% | 64.9 | 0 to 10% | 0% | 0 to 10% | 0% | 450 mg/kg |  |  |  | 
5 | COc1cccc(CO[C@H]2O[C@H](CN(CC(C)C)C(=O)N(CCCl)N=O)[C@@H](O)[C@H](O)[C@H]2O)c1OC [Compound 52, 3-isobutyl-3-(2,3-dimethoxybenzyl α-D-glucopyranose-6-yl)-1-(2-chloroethyl)-1-nitrosourea] | 120 mg/kg | 3.62 mg/kg | 4/6 | > 420% | 33.1 | 0 to 10% | 0% | 0 to 10% | 0% | 360 mg/kg |  |  |  | 
6 | CCCCOC1OC(CO)C(O)C(O)C1N(CC1CCCO1)C(=O)N(CCCl)N=O [Compound 63, 3-tetrahydrofurfuryl-3-(n-butyl α-D-glucopyranose-2-yl)-1-(2-chloroethyl)-1-nitrosourea] | 190 mg/kg | 5.31 mg/kg | 3/6 | > 350% | 35.8 | 0 to 10% | 0% | 0 to 10% | 0% | 595 mg/kg |  |  |  | 
7 | CCCCOC1OC(CO)C(O)C(N(CCCOC)C(=O)N(CCCl)N=O)C1O [Compound 82, 3-(3-methoxy-n-propyl)-3-(n-butyl α-D-glucopyranose-3-yl)-1-(2-chloroethyl)-1-nitrosourea] | 200 mg/kg | 5.5 mg/kg | 3/6 | > 345% | 30.4 | 0 to 10% | 0% | 0 to 10% | 0% | 655 mg/kg |  |  |  | 
8 | COCC(C)N(C(=O)N(CCCl)N=O)C1C(CO)OC(OCC(C)C)C(O)C1O [Compound 94, 3-(1-methyl-2-methoxyethyl)-3-(isobutyl α-D-glucopyranose-4-yl)-1-(2-chloroethyl)-1-nitrosourea] | 160 mg/kg | 4.43 mg/kg | 3/6 | > 360% | 36.1 | 0 to 10% | 0% | 0 to 10% | 0% | 520 mg/kg |  |  |  | 
9 | CCCCO[C@H]1O[C@H](CN(C)C(=O)N(CCCl)N=O)[C@H](O)[C@H](O)[C@H]1O [Compound 105, 3-methyl-3-(n-butyl α-D-galactopyranose-6-yl)-1-(2-chloroethyl)-1-nitrosourea] | 130 mg/kg | 3.59 mg/kg | 3/6 | > 320% | 36.2 |  |  |  |  | 320 mg/kg | 0 to 10% | 5.7% | 0 to 10% | 0%
10 | CCN(C[C@H]1O[C@H](OCC(C)C)[C@H](O)[C@@H](O)[C@H]1O)C(=O)N(CCCl)N=O [Compound 108, 3-ethyl-3-(isobutyl α-D-galactopyranose-6-yl)-1-(2-chloroethyl)-1-nitrosourea] | 130 mg/kg | 4.24 mg/kg | 3/6 | > 320% | 30.7 |  |  |  |  | 390 mg/kg | 0 to 10% | 7.8% | 0 to 10% | 0%
11 | CCOCCN(C[C@H]1O[C@H](OCC(C)C)[C@H](O)[C@@H](O)[C@H]1O)C(=O)N(CCCl)N=O [Compound 109, 3-(2-ethoxyethyl)-3-(isobutyl α-D-galactopyranose-6-yl)-1-(2-chloroethyl)-1-nitrosourea] | 200 mg/kg | 3.74 mg/kg | 4/6 | > 430% | 53.5 | 0 to 10% | 0% | 0 to 10% | 0% | 655 mg/kg |  |  |  | 
12 | CCC(C)N(C[C@H]1O[C@H](OCCOCOC)[C@H](O)[C@@H](O)[C@H]1O)C(=O)N(CCCl)N=O (stereo partly drawn) [Compound 115] | 200 mg/kg | 3.2 mg/kg | 6/6 | > 700% | 62.5 | 0 to 10% | 0% | 0 to 10% | 0% | 600 mg/kg |  |  |  | 
